Reference: patent US20220354949A1, “NOVEL COMPOUNDS” (XENIOPRO GmbH, priority 2018, published 2022)

Experiments:
Type in all cases: cell-based
[1] = system: TANOUE cells (human B cell leukemia cells); experiment: Proliferation assay (alamarBlue) with TANOUE cells; conditions: Homo sapiens, B-cell, compound at 20 μM, Table 63 (novel compounds), read-out: Activity Range: weighted arithmetic mean (AVEw) of normalized fluorescence intensity relative to DMSO basis level 1.0
From the text: (§1) The antiproliferative activities of compounds falling under formula (Ia), (Ib) and (Ic), respectively, were investigated on cells or cell lines originating from a disorder of the haematopoietic system, including the myeloid cell compartment and the lymphoid cell compartment (T-cells and B-cells), the neuroendocrine system, the cervix, the breast, the ovaries, the lung, the gastrointestinal tract, and the mucosal epithelium, as well as from the skin epithelium and from the muscle. To this end, HL-60 cells, NB-4 cells, HH cells, RPMI-8402 cells, TANOUE cells, TT cells, HeLa cells, MDA-MB-231 cells, FU-OV-1 cells, LOU-NH91 cells, 23132/87 cells, CAL-27 cells, BHY cells, SCC-25 cells, A-431 cells, human primary epidermal keratinocytes (HPEK), and C2C12 cells were seeded into 96-well plates suitable for fluorescence assays (CORNING #3598) at following initial cell numbers: 1000 cells per well for HL-60; 1000 cells per well for NB-4; 5000 cells per well for HH; 5000 cells per well for RPMI-8402; 1500 cells per well for TANOUE; 9000 cells per well for TT; 2000 cells per well for HeLa; 3000 cells per well for MDA-MB-231; 3000 cells per well for FU-OV-1; 4000 cells per well for LOU-NH91; 2000 cells per well for 23132/87; 2000 cells per well for CAL-27; 1500 cells per well for BHY; 1500 cells per well for SCC-25; 700 cells per well for A-431; 1000 cells per well for HPEK; 500 cells per well for C2C12. The cells were treated with compounds at indicated final concentrations (diluted from the 1000× stock-solutions in DMSO to a final DMSO concentration of 0.1% v/v in H2O (Water For Injection, WFI, Fisherscientific #10378939)) or with the empty carrier DMSO at 0.1% v/v as control for 5 days. At day 5 after starting the treatments the cells were subjected to the alamarBlue® Proliferation Assay (Bio-Rad Serotec GmbH, BUF012B) according to the protocol of the manufacturer. The readout was taken with a multi-well plate-reader in the fluorescence mode with applying a filter for excitation at 560 nm (band width 10 nm) and for emission at 590 nm (band width 10 nm). Control treatments for growth inhibition with commercial compounds such as Methotrexate (MTREX) and Resveratrol (RES) were included on every plate. Some of the test compounds of the present invention were obtained and applied as their salts. According cases are indicated in the column “Specification” in Table 55 to Table 92 and by their sum formula in Table 93.
(§2) The assays were performed in duplicate or more replicates of independent single experiments each containing a six-fold replicate for every condition. For every individual plate, the measured fluorescence intensity values of the conditions with compound treatment were normalized against the corresponding equally weighted arithmetic mean of the fluorescence intensity values of the six DMSO treated control wells in order to obtain the relative values to a baseline level of 1.0.
(§3) Two independent outlier analyses were performed according to the methods by Peirce and Chauvenet (Ross, Journal of Engineering Technology 2003, 1-12). Outliers confirmed by at least one of the methods were excluded from the calculations but not more than one value out of six per compound within a single experiment. The weighted arithmetic mean (here abbreviated as AVEw) for each compound was calculated from the normalized values over all independent replicates of the single experiments comprising the six replicates each. The corresponding standard deviation for the weighted arithmetic mean was calculated according to the method described by Bronstein et al. (Bronstein, Semendjajew, Musiol, Müihlig, Taschenbuch der Mathematik, 5th edition 2001 (German), publisher: Verlag Harri Deutsch, Frankfurt am Main and Thun) and was combined with the Gauß' error propagation associated with the performed calculation for the normalization. The resulting standard deviation is herein referred to as “combined standard deviation”. […]

[2] = system: Notch signaling (human Notch1 receptor, hNotch1ΔE, CSL luciferase reporter in HeLa cells); experiment: Notch reporter assay (dual luciferase, HeLa cells transfected with hNotch1ΔE); conditions: compounds and controls at 10 μM
From the text: The activation level of Notch signaling can be quantified in vitro reliably by measuring the expression levels of Notch specific target genes. This can be accomplished by the quantification of corresponding mRNA or protein of a particular Notch target gene. Alternatively, cells can be genetically modified to carry a luciferase gene as an artificial Notch target gene, which is expressed in dependence of Notch activity. In this setting, Notch signaling levels can be quantified by measuring the luciferase-derived bioluminescence values.
An according Notch-reporter assay, i.e. a luciferase-based luminescence readout, was used here to quantify the ability of the claimed compounds to augment Notch signaling in a cellular system. […] After 24 hours of transfection, the transfected cells were carefully detached from the dish using 0.5 mM EDTA in PBS and seeded into 96-well plates suitable for luminescence readouts (CORNING, #3610) at 10′000 cells per well. […] Directly after the lysis, first the Firefly and then the Renilla luciferase values were measured consecutively from the same well with a luminescence reader immediately after applying 15 μL per well each of the corresponding enzyme substrates needed to create the luminescence signals (Promega, Dual-Luciferase® Reporter Assay System, #E1910). […]

[3] = system: MDA-MB-231 cells (human breast carcinoma cells); experiment: Proliferation assay (alamarBlue) with MDA-MB-231 cells; conditions: Homo sapiens, compound at 20 μM, Table 69 (novel compounds), read-out: Activity Range: weighted arithmetic mean (AVEw) of normalized fluorescence intensity relative to DMSO basis level 1.0
From the text: as §1, §2, §3

[4] = system: HH cells (human cutaneous T-cell lymphoma cells); experiment: Proliferation assay (alamarBlue) with HH cells; conditions: 20 μM, relative to DMSO basis level 1.0, Table 60 (compounds disclosed in PCT/EP2018/054686)
From the text: as §1, §2, §3

SMILES | activity at 20 µM [1] | Activity Range: weighted arithmetic mean (AVEw) of double-normalized Notch-reporter luminescence, relative to DMSO basis level of 1.0 [2] | activity at 20 µM [3] | Activity Range: weighted arithmetic mean (AVEw) of normalized fluorescence intensity, proliferation assay with HH cells [4]
CN(C)C(C#N)c1ccc(Oc2ccc(C3CCCCC3)cc2)cc1 (stereo not shown) [XPW-0314, 2-(4-(4-cyclohexylphenoxy)phenyl)-2-(dimethylamino)acetonitrile] | 40 to 60% | 2.0 ≤ AVEw |  | 
CN(C(c1ccc(Oc2ccc(C34CC5CC(CC(C5)C3)C4)cc2)cc1)C(F)(F)F)[S+]([O-])C(C)(C)C (stereo not shown) [XPW-4642, N-(1-(4-(4-((3r,5r,7r)-adamantan-1-yl)phenoxy)phenyl)-2,2,2-trifluoroethyl)-N,2-dimethylpropane-2-sulfinamide] |  |  | 60 to 70% | 
CN(C)C(c1ccc(Oc2ccc(C34CC5CC(CC(C5)C3)C4)cc2)cc1)C(F)(F)F (stereo not shown) [XPW-0042, 1-(4-(4-((3r,5r,7r)-adamantan-1-yl)phenoxy)phenyl)-2,2,2-trifluoro-N,N-dimethylethan-1-amine] | 80 to 90% |  | 80 to 90% | 
NS(=O)(=O)C#Cc1ccccc1 [PES] |  |  |  | 0.6 ± 0.1
CC(C)(C)[S+]([O-])NC(c1ccc(Oc2ccc(C34CC5CC(CC(C5)C3)C4)cc2)cc1)C(F)(F)F (stereo not shown) [XPW-0902, N-(1-(4-(4-((3r,5r,7r)-adamantan-1-yl)phenoxy)phenyl)-2,2,2-trifluoroethyl)-2-methylpropane-2-sulfinamide] | 0 to 20% |  | 0 to 20% | 
NC1(c2ccc(Oc3ccc(C45CC6CC(CC(C6)C4)C5)cc3)nc2)COC1 [XPW-3052] | 70 to 80% |  | 60 to 70% | 
COCCc1ccc(Oc2ccc(C(=O)N(C)O)cc2)cc1 [XPW-0675, N-hydroxy-4-(4-(2-methoxyethyl)phenoxy)-N-methylbenzamide] | 40 to 60% |  | 40 to 60% | 
O=C(c1ccc(Oc2ccc(C3CCCCC3)cc2)nc1)N1CCOCC1 [XPW-2890, (6-(4-cyclohexylphenoxy)pyridin-3-yl)(morpholino)methanone] | 70 to 80% |  | 40 to 60% | 
N#CN=C(N)c1ccc(Oc2ccc(C3CCCCC3)cc2)nc1 [XPW-0832, N′-cyano-6-(4-cyclohexylphenoxy)nicotinimidamide] | 70 to 80% |  | 70 to 80% | 
CN(O)C(c1ccc(Oc2ccc(C34CC5CC(CC(C5)C3)C4)cc2)cc1)C(F)(F)F (stereo not shown) [XPW-0182, N-(1-(4-(4-((3r,5r,7r)-adamantan-1-yl)phenoxy)phenyl)-2,2,2-trifluoroethyl)-N-methyl hydroxylamine] | 40 to 60% |  | 40 to 60% | 
C[C@H](NC(=O)Cc1cc(F)cc(F)c1)C(=O)N[C@H](C(=O)OC(C)(C)C)c1ccccc1 [DAPT] |  | 0.1 ± 0.0 |  | 
